Like-named read-outs stand apart in the source and are kept apart here.
How the values were obtained:
[1] = Pharmacokinetic parameters in rats (blood plasma kinetic); assay type: in vivo, male rats (Han-Wistar); conditions: male rats, 0.1 mmol Gd/kg bolus tail vein, mean
Protocol: Pharmacokinetic parameters of the compound of Example 3 were determined in male rats (Han-Wistar, 220-230 g, n=3). The compound was administered as a sterile aqueous solution (52.5 mmol Gd/L) as a bolus in the tail vein of the animals. The dose was 0.1 mmol Gd/kg. Blood was sampled 1, 3, 5, 10, 15, 30, 60, 90, 120, 240, 360, 480 and 1440 min post injection and the Gd concentration was determined by Inductively Coupled Plasma Mass Spectroscopy (ICP-MS Agilent 7500a, Waldbronn, Germany). The blood level was converted to plasma concentrations by division by 0.625 (plasma fraction of rat blood, assuming strictly extracellular distribution). As a control, 3 animals were treated in the same way with Gadovist®, a low molecular weight contrast agent.
The fit of the obtained data to a three compartment model (Phoenix—WinNonlin) yielded the pharmacokinetic parameters which are shown in Table 3.

[2] = Whole body imaging (dynamic MRI and tissue Gd concentration); assay type: in vivo, male New Zealand white rabbits; conditions: rabbits, tissues 30 min p.i., FIGS. 8A and 8B
Protocol: The study was performed with a clinical whole body MRI equipped with body spine coil, abdomen flex coil, neck coil (1.5 T Magnetom Avanto, Siemens Healthcare, Erlangen, Germany). The study was done using male New Zealand white rabbits (weight 2.3-3.0 kg, n=8, Charles River Kisslegg). All animals were initially anesthetized using a body weight-adjusted intramuscular injection of a mixture (1+2) of xylazine hydrochloride (20 mg/mL, Rompun 2%, Bayer Vital GmbH, Leverkusen, Germany) and ketamine hydrochloride (100 mg/mL, Ketavet, Pfizer, Pharmacia GmbH, Berlin, Germany) using 1 mL/kg body weight. The continuous anesthesia of the intubated animals (endotracheal tube, Rueschelit Super Safe Clear, cuff 3.0 mm, Willy Ruesch AG, Kernen, Germany) was achieved by the intravenous injection of 0.9 mg propofol per kilogram per hour (10 mg/mL, Propofol-Lipuro 1%, B. Braun Melsungen AG, Melsungen, Germany). The continuous intravenous injection was performed using a MR infusion system (Continuum MR Infusion System, Medrad Europe B. V., A E Beek, Germany). The tracheal respiration (SV 900C, Maquet, Rastatt, Germany) was performed with 55% oxygen, forty breaths per minute and a breathing volume of 7 mL per kilogram body weight per minute.
Dynamic MRI measurements up to 22 min post injection with subsequent quantitative signal analysis (Siemens Mean Curve software (SYNGO Task Card, Siemens Healthcare, Erlangen, Germany), were performed for three different regions head and neck (brain, tongue, chops muscle, neck muscle), abdomen (spleen, liver, blood) and pelvis (extremity muscle). For the three different slice groups a 3D T1-weighted Vibe sequence was used (TR=4.74 ms, TE=2.38, flip=10°, 1:29 min). The dynamic measurements of the three slice groups (Head/Neck: 1:29 min, Abdomen: 0:49 min, Pelvis: 1:16 min) were done up to 22 min post injection: 1. Head/Neck: baseline, 1.4, 5.2, 8.9, 12.8, 16.5, 20.4 min, 2. Abdomen: baseline, 0.5, 4.3, 8.1, 11.9, 15.7, 19.5 min and 3. Pelvis: baseline, 2.9, 6.7, 10.5, 14.4, 18.1, 22.0 min. At 30 min post injection the animals were sacrificed and the Gd concentrations were measured using Inductively Coupled Plasma Mass Spectroscopy (ICP-MS Agilent 7500a, Waldbronn, Germany) in the following tissue samples: blood, brain, tongue, liver and extremity muscle. A quantitative image evaluation was performed for the 30 min time point p.i. due to the combination of the quantitative ICP-MS Gadolinium concentrations and the MRI region-of-interest analysis.

[3] = 37° C., cited from earlier work
[4] = Gadolinium release after the addition of zinc and phosphate (transmetallation); conditions: phosphate buffer pH 7.00, 2.5 mmol/L gadolinium complex, 2.5 mmol/L ZnCl2, 37° C., up to 72 h, FIG. 2
Protocol: The technique is based on measurement of the evolution of the water proton paramagnetic longitudinal relaxation rate in phosphate buffer (pH 7.00, 26 mmol/L, KH2PO4 Merck, Hessen, Germany) containing 2.5 mmol/L gadolinium complex and 2.5 mmol/L ZnCl2 Sigma-Aldrich, Munich, Germany). […] The mixture was vigorously stirred, and 300 μL were taken out for the relaxometric study at 0 min, 60 min, 120 min, 3 h, 4 h, 5 h, 24 h, 48 h and 72 h. The measurements were performed on a MiniSpec mq60 spectrometer (Bruker Analytik, Karlsruhe, Germany) at 60 MHz and 37° C.

AUC∞ Area under the curve (to infinity) [1]: 11500 µmol·min/L | MRT Mean residence time [1]: 30.1 min | V1 + V2 Volume, compartments V1 + V2 [1]: 0.25 L/kg | V2 Volume, compartment V2 [1]: 0.12 L/kg | Vc (V1) Volume, central compartment V1 [1]: 0.14 L/kg | Vd,ss Volume of distribution at steady state [1]: 0.28 L/kg | t½ α Half-life, compartment V1 ([1]; three compartment model): 1.6 min | t½ β Half-life, compartment V2 ([1]; three compartment model): 20.5 min | t½ γ Half-life, compartment V3 ([1]; three compartment model): 232 min | stability against transmetallation (relative longitudinal relaxation rate R1p(t)/R1p(0) versus time) [4]: high stability
SMILES: O=C([O-])CN1CCN(CC(=O)[O-])CCN([C@H](CO)[C@H](O)CO)CCN(CC(=O)[O-])CC1.[Gd+3] (racemic) [Reference compound 1, gadobutrol, reference compound]
slope of the linear regression between tissue gadolinium concentration and MRI signal change [2]: 1.0 | r1 human plasma ([3]; reference compounds (marked ^), plasma, 3.0 T, average ± standard deviation): 5.0 ± 0.3 L/mmol/s | r1 water ([3]; reference compounds (marked ^), 3.0 T, average ± standard deviation): 3.2 ± 0.3 L/mmol/s | r1 FBS ([3]; reference compounds, bovine plasma, 1.5 T, from Rohrer et al.): 5.2 L/mmol/s | r1 water ([3]; reference compounds, 1.5 T, from Rohrer et al.): 3.3 L/mmol/s
